Test results taken from PubChem BioAssay (NCI).
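96-well plates; 48 h exposure; 5 concentrations. Endpoints by linear interpolation between flanking doses. Not reached: highest tested concentration assigned. The concentration for 50% growth inhibition is given as GI50. TGI marks complete inhibition of growth.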

Columns and labels:
Assay in all cases: inhibition of tumour cell growth, NCI panel, 48 h
[1] = test system: CAKI-1 renal
[2] = test system: TK-10 renal
[3] = test system: LOX IMVI melanoma
[4] = test system: U251 CNS
[5] = test system: IGROV1 ovarian
[6] = test system: MDA-MB-435
[7] = test system: NCI-H460 lung
[8] = test system: SK-MEL-5 melanoma
[9] = test system: SW-620 colon
[10] = test system: SK-MEL-28 melanoma
[11] = test system: SR leukemia
[12] = test system: UACC-257 melanoma
[13] = test system: SF-539 CNS
[14] = test system: HCT-116 colon
[15] = test system: NCI-H226 lung
[16] = test system: PC-3 prostate
[17] = test system: OVCAR-5 ovarian
[18] = test system: MALME-3M melanoma
[19] = test system: UO-31 renal
[20] = test system: SNB-75 CNS
[21] = test system: ACHN renal
[22] = test system: HCT-15 colon
[23] = test system: BT-549 breast
[24] = test system: DU-145 prostate
[25] = test system: M14 melanoma
[26] = test system: HOP-92 NSCLC
[27] = test system: SK-OV-3 ovarian
[28] = test system: HS 578T breast
[29] = test system: OVCAR-8 ovarian
[30] = test system: HL-60(TB) leukemia
[31] = test system: HT29 colon
[32] = test system: HOP-62 NSCLC
[33] = test system: EKVX NSCLC
[34] = test system: OVCAR-4 ovarian
[35] = test system: SF-268 CNS
[36] = test system: MOLT-4 leukemia
[37] = test system: SF-295 CNS
[38] = test system: 786-0 renal
[39] = test system: MDA-N
[40] = test system: HCC-2998 colon
[41] = test system: NCI/ADR-RES ovarian
[42] = test system: OVCAR-3 ovarian
[43] = test system: MCF7 breast
[44] = test system: RXF 393 renal
[45] = test system: RPMI-8226 leukemia
[46] = test system: A498 renal
[47] = test system: MDA-MB-231 breast
[48] = test system: CCRF-CEM leukemia
[49] = test system: UACC-62 melanoma
[50] = test system: A549 NSCLC
[51] = test system: SN12C renal
[52] = test system: T-47D breast
[53] = test system: SNB-19 CNS
[54] = test system: K-562 leukemia

## COC1=C(OC)[C@]2(OC)c3c(O)c(OC)c4c(c3O[C@@]23O[C@@H](c2ccccc2)CC=C3C1=O)[C@@H](O)C[C@H](c1ccccc1)O4
[1]
  GI50: 1340 nM
  TGI: 2930 nM
[2]
  GI50: 251 nM
  TGI: 718 nM
[3]
  GI50: 157 nM
  TGI: 377 nM
[4]
  GI50: 1800 nM
  TGI: 3550 nM
[5]
  GI50: 932 nM
  TGI: 2440 nM
[6]
  GI50: 270 nM
  TGI: 870 nM
[7]
  GI50: 1420 nM
  TGI: 2970 nM
[8]
  GI50: 1320 nM
  TGI: 2600 nM
[9]
  GI50: 173 nM
  TGI: 334 nM
[10]
  GI50: 318 nM
  TGI: 1000 nM
[11]
  GI50: 229 nM
  TGI: 612 nM
[12]
  GI50: 1010 nM
  TGI: 2360 nM
[13]
  GI50: 934 nM
  TGI: 2500 nM
[14]
  GI50: 183 nM
  TGI: 380 nM
[15]
  GI50: 286 nM
  TGI: 1460 nM
[16]
  GI50: 466 nM
  TGI: 1030 nM
[17]
  GI50: 1640 nM
  TGI: 3180 nM
[18]
  GI50: 377 nM
  TGI: 1330 nM
[19]
  GI50: 1330 nM
  TGI: 2600 nM
[20]
  GI50: 693 nM
  TGI: 1980 nM
[21]
  GI50: 819 nM
  TGI: 2060 nM
[22]
  GI50: 157 nM
  TGI: 340 nM
[23]
  GI50: 394 nM
  TGI: 1210 nM
[24]
  GI50: 2230 nM
  TGI: 4560 nM
[25]
  GI50: 358 nM
  TGI: 1170 nM
[26]
  GI50: 244 nM
  TGI: 641 nM
[27]
  GI50: 1760 nM
  TGI: 3450 nM
[28]
  GI50: 1760 nM
  TGI: 5380 nM
[29]
  GI50: 181 nM
  TGI: 350 nM
[30]
  GI50: 177 nM
  TGI: 627 nM
[31]
  GI50: 224 nM
  TGI: 565 nM
[32]
  GI50: 1540 nM
  TGI: 3200 nM
[33]
  GI50: 1690 nM
  TGI: 3080 nM
[34]
  GI50: 1480 nM
  TGI: 3380 nM
[35]
  GI50: 311 nM
  TGI: 1350 nM
[36]
  GI50: 85.2 nM
  TGI: 354 nM
[37]
  GI50: 1780 nM
  TGI: 3570 nM
[38]
  GI50: 171 nM
  TGI: 339 nM
[39]
  GI50: 196 nM
  TGI: 424 nM
[40]
  GI50: 564 nM
  TGI: 1960 nM
[41]
  GI50: 688 nM
  TGI: 3390 nM
[42]
  GI50: 204 nM
  TGI: 517 nM
[43]
  GI50: 321 nM
  TGI: 1670 nM
[44]
  GI50: 199 nM
  TGI: 406 nM
[45]
  GI50: 71.4 nM
  TGI: 597 nM
[46]
  GI50: 348 nM
  TGI: 2350 nM
[47]
  GI50: 234 nM
  TGI: 911 nM
[48]
  GI50: 54.5 nM
  TGI: 208 nM
[49]
  GI50: 326 nM
  TGI: 1300 nM
[50]
  GI50: 2010 nM
  TGI: 4390 nM
[51]
  GI50: 270 nM
  TGI: 893 nM
[52]
  GI50: 224 nM
  TGI: 621 nM
[53]
  GI50: 2110 nM
  TGI: 9690 nM
[54]
  GI50: 97.2 nM
  TGI: 742 nM
